Measured values taken from US11376215B2, “Feed composition for improving intraintestinal environment” (AJINOMOTO CO., INC., priority 2017, dated 2022).

Experiments:
Assay type in all cases: cell-based
bifidobacteria [1] = test: Experimental Example 1-1: addition test of amino acid and fructo-oligosaccharide to human feces suspension; details: amino acid added together with 0.5% FOS, anaerobic culture 4 days at 37° C., quantitative PCR, compared with FOS alone
Procedure: The PBS solutions for the Examples and Comparative Examples shown in Table 1-1 were prepared and used as media for a feces culture. PBS alone was used as a control. Fructo-oligosaccharide (FOS) manufactured by Wako Pure Chemical Industries, Ltd. (#064-02385) was used.
(§1) Thereafter, 10 ml of each solution was dispensed into glass vials and the glass vials were sterilized by autoclave, made anaerobic, and sealed with a butyl rubber stopper. The feces suspension was prepared by collecting about 10 g of feces from 3 healthy individuals (one man and two women) in their 20s to 40s and suspending same in 80 ml of anaerobic PBS. The feces suspension was added to each vial by 0.5 ml, placed in an incubator at 37° C., and anaerobically cultured for 4 days with tumble blending once per day. After completion of the culture, an intestinal bacterial pellet was obtained from the entire amount of the culture medium by centrifugation (8,000×g, 5 min). DNA was extracted from this pellet using ISOFECAL for BeadsBeat (manufactured by NIPPON GENE CO., LTD.), and quantitative PCR was performed using GeneAce SYBR qPCR Mix α (manufactured by NIPPON GENE CO., LTD.). Quantitative PCR was performed under the conditions of 45 cycles of 95° C. for 30 sec and 60° C. for 60 sec after 95° C. for 10 min. Primers for quantitative PCR used for detection bifidobacteria are as follows:
(§2) Using the results obtained by quantitative PCR, the relative amount when the control is 1 was calculated, and the results were normalized with z-score.

bifidobacteria [2] = test: Experimental Example 2: addition test of amino acid and galacto-oligosaccharide to human feces suspension; details: amino acid added together with 0.5% GOS, anaerobic culture 4 days, quantitative PCR, compared with GOS alone
Procedure: as §1
The PBS solutions for the Examples and Comparative Examples shown in Table 2 were prepared and used as media for a feces culture. […]
as §2

bifidobacteria [3] = test: Experimental Example 1-2: addition test of amino acid and fructo-oligosaccharide to human feces suspension; details: amino acid added together with 0.5% FOS, anaerobic culture 4 days, quantitative PCR, compared with FOS alone
Procedure: as §1
The PBS solutions for the Examples and Comparative Examples shown in Table 1-2 were prepared and used as media for a feces culture. […]
as §2

Row | SMILES | proliferation of bifidobacteria (bifidobacteria [1]) | proliferation of bifidobacteria (bifidobacteria [2]) | proliferation of bifidobacteria (bifidobacteria [3])
1 | C[C@H](N)C(=O)O [Ala, L-alanine] | greater proliferation of bifidobacteria than that with FOS alone |  | 
2 | NC(=O)CC[C@H](N)C(=O)O [Gln, L-glutamine] | greater proliferation of bifidobacteria than that with FOS alone |  | 
3 | N[C@@H](CCC(=O)O)C(=O)O [Glu, L-glutamic acid] | greater proliferation of bifidobacteria than that with FOS alone | greater proliferation of bifidobacteria than that with GOS alone | 
4 | N[C@@H](Cc1c[nH]cn1)C(=O)O [His, L-histidine] |  |  | greater proliferation of bifidobacteria than that with FOS alone
5 | CC[C@H](C)[C@H](N)C(=O)O [Ile, L-isoleucine] | greater proliferation of bifidobacteria than that with FOS alone |  | 
6 | NCCCC[C@H](N)C(=O)O [Lys, L-lysine] | greater proliferation of bifidobacteria than that with FOS alone | greater proliferation of bifidobacteria than that with GOS alone | 
7 | O=C(O)[C@@H]1CCCN1 [Pro, L-proline] |  |  | greater proliferation of bifidobacteria than that with FOS alone
8 | CC(C)[C@H](N)C(=O)O [Val, L-valine] | greater proliferation of bifidobacteria than that with FOS alone |  | 
